From PMC9959048, “Lipidation of Naturally Occurring α-Helical Antimicrobial Peptides as a Promising Strategy for Drug Design” (International Journal of Molecular Sciences, 2023)
≈ marks a conversion by molar mass, not a printed value. Where two headings read alike, the source gives them in different places. Residues, ends and D or L forms follow the SMILES beside them. *: point of attachment. Myristoyl = CCCCCCCCCCCCCC(=O)*; Lauroyl = CCCCCCCCCCCC(=O)*; Octanoyl = CCCCCCCC(=O)*

Key:
S. aureus PCM2054 = type: cell-based, Staphylococcus aureus
Protocol: (§1) The evaluation of the antimicrobial activity of the synthesized lipopeptides was performed against the following reference bacterial and fungal strains: Staphylococcus aureus PCM 1650, Staphylococcus aureus PCM 2054, Staphylococcus epidermidis PCM 521, Staphylococcus epidermidis PCM 2118, Escherichia coli PCM 2057, Candida albicans PCM 2566, Candida glabrata CCM 8270, Candida krusei CCM 8271, Candida parapsilosis CCM 8260.
(§2) For the initial cultivation of the bacteria and fungi, Luria-Bertani broth (LB, Biomaxima, Lublin, Poland) and Sabouraud Dextrose broth (SB, Biomaxima, Lublin, Poland) were used, respectively. Antimicrobial properties of the compounds were analyzed through the determination of MIC (minimal inhibitory concentrations) by my means of the serial micro-dilution technique according to the guidelines of Clinical & Laboratory Standard Institute (CLSI) established for aerobic bacteria and yeasts.
(§3) According to the procedures, Mueller–Hinton broth (MHB) was used as the working medium for the analysis of the bacterial susceptibility, while RPMI-1640 (with L-glutamine, without sodium bicarbonate) growth medium buffered with MOPS (morpholinepropanesulfonic acid) and supplemented with 2% glucose was used for the experiments with the fungi.
(§4) The experiments were carried out for 24 h at 37 and 35 °C for the bacteria and fungi, respectively. Then, the absorbance was measured at 600 nm for each well of the 96-well plate using a microplate reader (Sunrise TM, Tecan Trading AG, Männedorf, Switzerland). Based on the obtained results, the degree of inhibition of the growth of microorganisms (expressed in %) in the presence of the tested compounds range was determined with respect to the control probes. Inoculated wells without peptide were treated as a positive control (100% growth), and the wells containing working medium only were defined as a negative control (0% growth). All measurements were repeated in triplicate.

S. epidermidis PCM2118 = type: cell-based, Staphylococcus epidermidis
Protocol: as §1, §2, §3, §4

S. epidermidis PCM521 = type: cell-based, Staphylococcus epidermidis
Protocol: as §1, §2, §3, §4

E. coli PCM2057 = type: cell-based, Escherichia coli
Protocol: as §1, §2, §3, §4

C. albicans PCM2566 = type: cell-based, Candida albicans
Protocol: as §1, §2, §3, §4

C. glabrata CCM8270 = type: cell-based, Candida glabrata
Protocol: as §1, §2, §3, §4

C. krusei CCM8271 = type: cell-based, Candida krusei
Protocol: as §1, §2, §3, §4

C. parapsilosis CCM 8260 = type: cell-based, Candida parapsilosis
Protocol: as §1, §2, §3, §4

[1] = test system: human breast cancer cells (MCF-7 line, ATCC); test: MTT cytotoxicity assay; type: cell-based; conditions: IC50 against HaCaT divided by IC50 for MCF-7
Protocol: (§5) The prepared plates were further incubated for 48 h. […] The control cell viability was assumed to be 100%. Three independent experiments were carried out in three repetitions.

[2] = test system: human prostate cancer cells (PC3 line, ATCC); test: MTT cytotoxicity assay; type: cell-based; conditions: IC50 against HaCaT divided by IC50 for PC3
Protocol: as §5

POPC liposomes = test: CD, α-helix content in POPC liposomes; type: physicochemical; conditions: 25 °C, peptide 0.15 mg/mL, 1.3 mM POPC
Protocol: (§6) Large unilamellar vesicles (LUV) were obtained by extrusion of MLV liposomes through polycarbonate membrane filters with a pore diameter of 100 nm (Whatman International Ltd., Kent, UK) using a mini-extruder (Avanti Polar Lipids, Inc., Alabaster, AL, USA).
(§7) CD experiments were carried out at 25 °C using a Jasco J-815 spectropolarimeter in the wavelength range 185–260 nm. The concentration of the lipopeptides was 0.15 mg/mL. The CD spectra were recorded in water, PBS (pH 7.4), 1.3 mM POPC and 1.3 mM POPG. The results are plotted as the mean molar ellipticity per one amino acid residue (MRME, deg cm^2 dmol^−1) as a function of the wavelength (nm). Additionally, we performed a conformational analysis of the selected compounds in the presence of S. aureus cells. […] The mixtures were then incubated for 2 h before recording the CD spectra.
(§8) The percentage of the α-helical structure was calculated based on the mean molar ellipticity at 222 nm using the formula: fH=θ222−3000/−36000−3000·100% where θ222 corresponds to the value of the mean molar ellipticity at a wavelength of 222 nm.

POPG liposomes = test: CD, α-helix content in POPG liposomes; type: physicochemical; conditions: 25 °C, peptide 0.15 mg/mL, 1.3 mM POPG, from ellipticity at 222 nm
Protocol: as §6, §7, §8

POPG LUVs = test: Isothermal titration calorimetry, binding to POPG LUVs; conditions: ITC, 25 °C, 0.05 or 0.07 mM peptide titrated with 1.3 or 1.8 mM POPG LUVs; one set of sites model (C10-LL-I: two sets of sites, first line)
Protocol: as §6
The thermodynamic parameters of the interactions of the lipopeptides with POPG and POPC liposomes were determined by isothermal titration calorimetry (ITC). Measurements were performed at 25 °C using an AutoITC microcalorimeter (MicroCal Inc., Northampton, MA, USA) with a 1.4491 mL sample and reference cells. The experiment consisted in the titration of a buffered peptide solution with a concentration of 0.05 and/or 0.07 mM with a buffered solution containing POPG or POPC LUVs with a lipid concentration of 1.3 and 1.8 mM (10.02 µL; 29 injections, 2 µL for the first injection only), as it was described previously. The result of the titration was a thermogram showing a series of peaks corresponding to the titration steps. A titration curve was obtained after integration of the peak areas. The obtained isotherms were fitted to the “one set of sites” or “two sets of sites” models available in the ORIGIN 7.0 (MicroCal Inc., Northampton, MA, USA), which made it possible to determine the enthalpy (ΔH), the binding constant (KITC) and the stoichiometry (N) of the interactions between the lipopeptide and the lipids. The following formula was used to calculate the entropy change (ΔS) and the Gibbs free energy (ΔG): ΔG=−RTln(55.5KITC)=ΔH−TΔS where: factor 55.5 is the molar concentration of water, R is the gas constant (1.986 cal·mol^−1·K^−1), and T is the absolute temperature.

S. aureus PCM1650 = type: cell-based, Staphylococcus aureus
Protocol: as §1, §2, §3, §4

[3] = Mueller–Hinton broth, inoculum 5 × 10^5 CFU/mL, 24 h, 37 °C, absorbance 600 nm, triplicate
[4] = RPMI-1640 with MOPS and 2% glucose, inoculum 5 × 10^3 CFU/mL, 24 h, 35 °C, absorbance 600 nm, triplicate

Row | Compound | MIC, S. aureus PCM2054 (S. aureus PCM2054; [3]) [µg/mL] | MIC, S. epidermidis PCM2118 (S. epidermidis PCM2118; [3]) [µg/mL] | MIC, S. epidermidis PCM521 (S. epidermidis PCM521; [3]) [µg/mL] | MIC, E. coli PCM2057 (E. coli PCM2057; [3]) [µg/mL] | MIC, C. albicans PCM2566 (C. albicans PCM2566; [4]) [µg/mL] | MIC, C. glabrata CCM8270 (C. glabrata CCM8270; [4]) [µg/mL] | MIC, C. krusei CCM8271 (C. krusei CCM8271; [4]) [µg/mL] | MIC, C. parapsilosis CCM 8260 (C. parapsilosis CCM 8260; [4]) [µg/mL] | MIC, S. aureus PCM1650 (S. aureus PCM1650; [3]) [µg/mL] | other results
1 | CCCCCCCC(=O)N[C@@H](CCCCN)C(=O)N[C@@H](CCCNC(=N)N)C(=O)N[C@@H](Cc1ccccc1)C(=O)N[C@@H](CCCCN)C(=O)N[C@@H](CCCCN)C(=O)N[C@@H](Cc1ccccc1)C(=O)N[C@@H](Cc1ccccc1)C(=O)N[C@@H](CCCCN)C(=O)N[C@@H](CCCCN)C(=O)N[C@@H](CC(C)C)C(=O)N[C@@H](CCCCN)C(N)=O [C8-ATRA-1] (Octanoyl-KRFKKFFKKLK-NH2) | 7.8 (≈ 4.81 µM) | 3.13 (≈ 1.93 µM) | 3.13 (≈ 1.93 µM) | >50 | >50 | >50 | 12.5 (≈ 7.7 µM) | 50 (≈ 30.8 µM) |  | SI MCF-7 [1]: 8.55; SI PC3 [2]: 2.29; θ222/θ208, POPC (POPC liposomes): 0.38; α-Helix percentage, POPC (POPC liposomes; from ellipticity at 222 nm): 11%; α-Helix percentage, POPG (POPG liposomes): 20%; pKITC, POPG (POPG LUVs): 5.78 ± 0.27
2 | CCCCCCCCCCCC(=O)N[C@H](C(=O)N[C@@H](CCCCN)C(=O)N[C@@H](CCCCN)C(=O)N[C@H](C(=O)N[C@@H](CC(C)C)C(=O)N[C@@H](CO)C(=O)N[C@@H](CCCCN)C(=O)N[C@H](C(=O)N[C@@H](CCCCN)C(=O)N[C@@H](CCCCN)C(=O)N[C@@H](CC(C)C)C(=O)N[C@@H](CC(C)C)C(=O)N[C@@H](CCCCN)C(N)=O)[C@@H](C)CC)[C@@H](C)CC)[C@@H](C)CC [C12-LK6] (Lauroyl-IKKILSKIKKLLK-NH2) |  |  |  |  |  |  |  |  |  | MIC, S. aureus PCM1650 (S. aureus PCM1650; PCM1650, 24 h): 25 µg/mL (≈ 14.4 µM); MIC, S. aureus PCM2054 (S. aureus PCM2054; PCM2054, 24 h): 50 µg/mL (≈ 28.8 µM); MIC, S. epidermidis PCM2118 (S. epidermidis PCM2118; PCM2118, 24 h): 6.25 µg/mL (≈ 3.6 µM); MIC, S. epidermidis PCM521 (S. epidermidis PCM521; PCM521, 24 h): 25 µg/mL (≈ 14.4 µM); MIC, E. coli PCM2057 (E. coli PCM2057; PCM2057, 24 h): >50 µg/mL; MIC, C. albicans PCM2566 (C. albicans PCM2566; PCM2566, 24 h): 6.25 µg/mL (≈ 3.6 µM); MIC, C. glabrata CCM8270 (C. glabrata CCM8270; CCM8270, 24 h): 3.13 µg/mL (≈ 1.8 µM); MIC, C. krusei CCM8271 (C. krusei CCM8271; CCM8271, 24 h): 6.25 µg/mL (≈ 3.6 µM); MIC, C. parapsilosis CCM 8260 (C. parapsilosis CCM 8260; CCM 8260, 24 h): 6.25 µg/mL (≈ 3.6 µM)
3 | CCCCCCCCCCCC(=O)N[C@H](C(=O)N[C@@H](CC(N)=O)C(=O)N[C@@H](Cc1c[nH]c2ccccc12)C(=O)N[C@@H](CCCCN)C(=O)N[C@@H](CCCCN)C(=O)N[C@H](C(=O)N[C@@H](CC(C)C)C(=O)NCC(=O)N[C@@H](CCCCN)C(=O)N[C@H](C(=O)N[C@H](C(=O)N[C@@H](CCCCN)C(=O)N[C@H](C(=O)N[C@@H](C)C(=O)N[C@@H](CCCCN)C(N)=O)C(C)C)[C@@H](C)CC)[C@@H](C)CC)C(C)C)C(C)C [C12-LL-I] (Lauroyl-VNWKKVLGKIIKVAK-NH2) | 12.5 (≈ 6.56 µM) | 6.25 (≈ 3.28 µM) | 12.5 (≈ 6.56 µM) | >50 | >50 | 12.5 (≈ 6.56 µM) | 12.5 (≈ 6.56 µM) | 3.13 (≈ 1.64 µM) | 12.5 (≈ 6.56 µM) | 
4 | CCCCCCCCCCCCCC(=O)N[C@@H](CCCCN)C(=O)N[C@@H](CCCNC(=N)N)C(=O)N[C@@H](Cc1ccccc1)C(=O)N[C@@H](CCCCN)C(=O)N[C@@H](CCCCN)C(=O)N[C@@H](Cc1ccccc1)C(=O)N[C@@H](Cc1ccccc1)C(=O)N[C@@H](CCCCN)C(=O)N[C@@H](CCCCN)C(=O)N[C@@H](CC(C)C)C(=O)N[C@@H](CCCCN)C(N)=O [C14-ATRA-1] (Myristoyl-KRFKKFFKKLK-NH2) | 3.9 (≈ 2.28 µM) | 6.25 (≈ 3.66 µM) | 25 (≈ 14.6 µM) | >50 | 2.5 (≈ 1.46 µM) | 3.13 (≈ 1.83 µM) | 2.5 (≈ 1.46 µM) | 3.13 (≈ 1.83 µM) | 12.5 (≈ 7.32 µM) | 
5 | CC[C@H](C)[C@H](NC(=O)[C@H](CCCCN)NC(=O)CNC(=O)[C@H](CC(C)C)NC(=O)[C@@H](NC(=O)[C@H](CCCCN)NC(=O)[C@H](CCCCN)NC(=O)[C@H](Cc1c[nH]c2ccccc12)NC(=O)[C@H](CC(N)=O)NC(=O)[C@@H](N)C(C)C)C(C)C)C(=O)N[C@H](C(=O)N[C@@H](CCCCN)C(=O)N[C@H](C(=O)N[C@@H](C)C(=O)N[C@@H](CCCCN)C(N)=O)C(C)C)[C@@H](C)CC [LL-I, reference compound] (H-VNWKKVLGKIIKVAK-NH2) | >50 | 6.25 (≈ 3.63 µM) | 12.5 (≈ 7.25 µM) | 12.5 (≈ 7.25 µM) | >50 | >50 | 50 (≈ 29 µM) | 50 (≈ 29 µM) | 25 (≈ 14.5 µM) | 
